Data reported in US9540702B2, “Stabilization of enzymes with stable coenzymes” (Roche Diabetes Care, Inc., priority 2009, dated 2017).

Experiments:
[1] = molecular target: T1, glucose dehydrogenase (GlucDH) (Bacillus subtilis, UniProt P12310); test: Stability of glucose dehydrogenase with coenzyme in a liquid phase at 50° C.; format: biochemical; settings: 10 mg/ml GlucDH, 12 mg/ml coenzyme, pH 8.5
Procedure: FIGS. 9A and 9B are graphical illustrations of the stability of glucose dehydrogenase in the presence of NAD or cNAD in a liquid phase at 50° C. for a period of 4 days (FIG. 9A) or 14 days (FIG. 9B) with test conditions of 10 mg/ml GlucDH; 12 mg/ml NAD or cNAD; buffer: 0.1 M Tris, 1.2 M NaCl, pH 8.5; temperature 50° C.
After 95 hours at 50° C. the residual activity of glucose dehydrogenase in the presence of the native coenzyme NAD is […], whereas the residual activity of GlucDH in the presence of the artificial coenzyme cNAD is 75% (FIG. 9A). After 336 hours storage at 50° C. the residual activity of the enzyme stabilized with NAD is now only about 1%; a residual activity of still about 70% is observed for the enzyme stored in the presence of cNAD. The corresponding SDS gels also show a change in the GlucDH bands in the presence of the native coenzyme NAD: new bands are seen at higher molar masses and there is a shift in the 30 kDa band.

[2] = molecular target: glucose dehydrogenase (wild-type) (Bacillus subtilis, UniProt P12310); test: DSC of coenzyme binding; settings: 3.8 mM ligand; 0.1 M Tris buffer, pH 8.5
Chain of glucose dehydrogenase (wild-type) (P12310 whole entry): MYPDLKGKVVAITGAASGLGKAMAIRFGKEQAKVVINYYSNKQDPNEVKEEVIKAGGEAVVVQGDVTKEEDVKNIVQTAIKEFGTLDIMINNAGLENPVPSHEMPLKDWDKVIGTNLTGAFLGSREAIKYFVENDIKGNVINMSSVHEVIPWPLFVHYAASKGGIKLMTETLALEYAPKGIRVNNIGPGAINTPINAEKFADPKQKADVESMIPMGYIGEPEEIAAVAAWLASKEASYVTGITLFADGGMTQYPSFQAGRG

diaphorase [3] = test: Diaphorase activity extracted from triglyceride test strips after storage; format: biochemical; settings: triglyceride test strips stored at 32° C. and 30-70% relative air humidity
Procedure: A composition which, among others, contained glycerol dehydrogenase, carbaNAD, diaphorase and a tetrazolium salt was used to determine triglycerides. Test strips were obtained by applying the formulation mentioned in Table 4 to a polycarbonate foil by means of a doctor blade (layer height 80 μm) and subsequent drying, and they were stored at 32° C. and 30-70% relative air humidity.

diaphorase [4] = test: Enzyme activity in test strips stored up to 18 weeks (Table 7); format: biochemical
Procedure: In order to evaluate the stabilization of glucose dehydrogenase and diaphorase by carbaNAD, a number of test strips were prepared in analogy to Example 5.
The test strips were stored over a period of 18 weeks at temperatures of 5° C. (KS, refrigerator), 25° C. (RT), 30° C. (GT), 35° C. (DT) and 45° C. (HT), and the enzyme activity in the test strips was determined at the start of storage (0 weeks), after 6 weeks, after 9 weeks, after 12 weeks and after 18 weeks. The results are shown in Table 6 (glucose dehydrogenase) and in Table 7 (diaphorase).

[5] = test system: L-lactate dehydrogenase (porcine); test: DSC of coenzyme binding; settings: 3.8 mM ligand; 0.1 M Tris buffer, pH 8.5
D-lactate dehydrogenase = D-lactate dehydrogenase (Lactobacillus delbrueckii subsp. bulgaricus, UniProt P26297); test: DSC of coenzyme binding; settings: 3.8 mM ligand; 0.1M Tris buffer, pH 7.5
Chain of D-lactate dehydrogenase (P26297 whole entry): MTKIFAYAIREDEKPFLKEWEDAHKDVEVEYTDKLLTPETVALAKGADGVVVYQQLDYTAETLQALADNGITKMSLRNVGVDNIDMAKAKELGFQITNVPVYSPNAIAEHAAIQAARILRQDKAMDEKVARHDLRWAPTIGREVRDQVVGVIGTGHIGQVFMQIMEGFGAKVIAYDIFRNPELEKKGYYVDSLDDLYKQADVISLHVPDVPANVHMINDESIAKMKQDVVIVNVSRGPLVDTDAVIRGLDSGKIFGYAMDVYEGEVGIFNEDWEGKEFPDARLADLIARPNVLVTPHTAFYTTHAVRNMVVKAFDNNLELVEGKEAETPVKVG

alcohol dehydrogenase = molecular target: T2, alcohol dehydrogenase (Saccharomyces cerevisiae, UniProt P00330); test: DSC of coenzyme binding; settings: 3.8 mM ligand; 0.75M glycine sodium pyrophosphate, pH 9.0
T2 sequence (P00330 1-348): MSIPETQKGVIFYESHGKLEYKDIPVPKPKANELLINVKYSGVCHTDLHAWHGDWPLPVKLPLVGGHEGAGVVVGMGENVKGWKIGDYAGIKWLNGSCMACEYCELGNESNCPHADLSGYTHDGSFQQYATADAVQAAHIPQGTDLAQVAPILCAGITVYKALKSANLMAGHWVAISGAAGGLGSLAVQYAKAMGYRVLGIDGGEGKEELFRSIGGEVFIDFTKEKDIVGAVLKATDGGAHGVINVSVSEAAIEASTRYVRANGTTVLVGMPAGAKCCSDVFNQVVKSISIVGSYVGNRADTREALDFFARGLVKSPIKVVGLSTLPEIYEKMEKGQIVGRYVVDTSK

[6] = molecular target: T3, alcohol dehydrogenase (ADH) (Saccharomyces cerevisiae, UniProt P00330); test: Stability of alcohol dehydrogenase with coenzyme in a liquid phase at 35° C.; format: biochemical, yeast; settings: 65 hours at 35° C., 5 mg/ml ADH, 50 mg/ml coenzyme, pH 9.0
T3 sequence (P00330 1-348): T2 sequence (P00330 1-348)
Procedure: FIG. 12 is a graphical illustration of the stability of alcohol dehydrogenase from yeast in the presence of NAD or cNAD in a liquid phase at 35° C. for a period of 65 hours with test conditions of 5 mg/ml ADH; 50 mg/ml NAD or cNAD; buffer: 75 mM Na4P2O7; glycine, pH 9.0; temperature 35° C.
cNAD or NAD was added to a detection solution containing alcohol dehydrogenase. These mixtures were stored at 2-8° C. and at 35° C. Subsequently, the stability of alcohol dehydrogenase (ADH) was checked at regular intervals and the residual activity of the enzyme was determined.
The residual activity of alcohol dehydrogenase in the presence of the native coenzyme NAD is at about 6% after 65 hours at 35° C., whereas the residual activity of the enzyme in the presence of the artificial coenzyme cNAD is still at about 60%.

[7] = molecular target: T1, glucose dehydrogenase (GlucDH); test: Reaction kinetics, function curve and dry blank value of GlucDH/coenzyme formulations after warm, humid storage; format: biochemical
Procedure: carbaNAD (FIG. 1A) or NAD were added to the glucose-specific GlucDH. These formulations were each applied to Pokalon foils (Lonza) and, after drying, stored under warm and humid conditions (32° C., 85% relative air humidity). Subsequently, the reaction kinetics and the function curve were determined at regular intervals. In parallel at each of the measurement times a cNAD/NAD analysis and a determination of the residual activity of the enzyme were carried out.
However, a significant difference in the kinetics curves can be seen after 5 weeks.
There is also a considerable difference in the blank values (dry blank value before application of a blood sample) as shown in FIG. 3.
The different stability of glucose dehydrogenase in the presence of NAD or cNAD is also evident from a comparison of FIGS. 4 and 5. […] In this connection it is clear that the function of the enzyme is only slightly changed at high glucose concentrations over the entire period and approximately corresponds after 24 weeks to the value obtained after 5 weeks.

T1 sequence (P12310 whole entry): as the sequence (P12310 whole entry) above

Question: For `NC(=O)c1ccc[n+]([C@@H]2C[C@H](COP(=O)([O-])OP(=O)(O)OC[C@H]3O[C@@H](n4cnc5c(N)ncnc54)[C@H](O)[C@@H]3O)[C@@H](O)[C@H]2O)c1` [carbaNAD], which “residual activity of glucose dehydrogenase” value ([1]; 95 hours at 50° C.) is on record?
Answer: 75%

Question: What about the “residual activity of glucose dehydrogenase” value ([1]; 336 hours at 50° C.) of the same compound?
Answer: about 70%

Question: And the TM [2]?
Answer: 58.5 °C

Question: What about the ΔHcal [2] of the same compound?
Answer: 84 kcal/mol

Question: And the “residual activity of diaphorase compared to formulation containing NAD” value (diaphorase [3])?
Answer: considerably increased residual activity

Question: What about the “Enzyme activity, diaphorase” value (diaphorase [4]; 0 weeks (start of storage)) of the same compound?
Answer: 4.6 U/cm^2

Question: What about the “Enzyme activity, diaphorase” value (diaphorase [4]; DT (35° C.), 6 weeks) of the same compound?
Answer: 3.4 U/cm^2

Question: And the “Enzyme activity, diaphorase” value (diaphorase [4]; DT (35° C.), 9 weeks)?
Answer: 4.4 U/cm^2

Question: What about the “Enzyme activity, diaphorase” value (diaphorase [4]; DT (35° C.), 12 weeks) of the same compound?
Answer: 4.0 U/cm^2

Question: What about the “Enzyme activity, diaphorase” value (diaphorase [4]; DT (35° C.), 18 weeks) of the same compound?
Answer: 5.3 U/cm^2

Question: And the “Enzyme activity, diaphorase” value (diaphorase [4]; GT (30° C.), 12 weeks)?
Answer: 4.3 U/cm^2

Question: What about the “Enzyme activity, diaphorase” value (diaphorase [4]; GT (30° C.), 18 weeks) of the same compound?
Answer: 6.2 U/cm^2

Question: And the “Enzyme activity, diaphorase” value (diaphorase [4]; HT (45° C.), 6 weeks)?
Answer: 3.9 U/cm^2

Question: What about the “Enzyme activity, diaphorase” value (diaphorase [4]; HT (45° C.), 9 weeks) of the same compound?
Answer: 3.8 U/cm^2

Question: What about the “Enzyme activity, diaphorase” value (diaphorase [4]; KS (5° C.), 6 weeks) of the same compound?
Answer: 4.4 U/cm^2

Question: And the “Enzyme activity, diaphorase” value (diaphorase [4]; KS (5° C.), 9 weeks)?
Answer: 5.2 U/cm^2

Question: And the “Enzyme activity, diaphorase” value (diaphorase [4]; KS (5° C.), 12 weeks)?
Answer: 4.8 U/cm^2

Question: And the “Enzyme activity, diaphorase” value (diaphorase [4]; KS (5° C.), 18 weeks)?
Answer: 7.0 U/cm^2

Question: And the “Enzyme activity, diaphorase” value (diaphorase [4]; RT (25° C.), 6 weeks)?
Answer: 4.5 U/cm^2

Question: And the “Enzyme activity, diaphorase” value (diaphorase [4]; RT (25° C.), 9 weeks)?
Answer: 5.1 U/cm^2

Question: And the “Enzyme activity, diaphorase” value (diaphorase [4]; RT (25° C.), 12 weeks)?
Answer: 4.6 U/cm^2

Question: What about the “Enzyme activity, diaphorase” value (diaphorase [4]; RT (25° C.), 18 weeks) of the same compound?
Answer: 6.7 U/cm^2

Question: And the TM [5]?
Answer: 61.5 °C

Question: What about the ΔHcal [5] of the same compound?
Answer: 82 kcal/mol

Question: What about the TM (D-lactate dehydrogenase) of the same compound?
Answer: 59.1 °C

Question: What about the ΔHcal (D-lactate dehydrogenase) of the same compound?
Answer: 19 kcal/mol

Question: And the TM (alcohol dehydrogenase)?
Answer: 55.4 °C

Question: And the ΔHcal (alcohol dehydrogenase)?
Answer: 310 kcal/mol

Question: What about the “residual activity of alcohol dehydrogenase” value [6] of the same compound?
Answer: about 60%

Question: What about the “function curve of GlucDH” value ([7]; after 5 weeks at 32° C. and 85% air humidity) of the same compound?
Answer: still lies within the set of curves of the previous measurements

Question: What about the “kinetics curves of GlucDH” value ([7]; after 5 weeks at 32° C. and 85% relative air humidity) of the same compound?
Answer: remains virtually unchanged

Question: And the “dry blank value before application of a blood sample” value ([7]; up to 5 weeks at 32° C. and 85% air humidity)?
Answer: does not occur
